Patent US20240108602A1, “TREATMENT OF MENTAL DISORDERS” (GH Research Ireland Limited, priority 2022, published 2024)

Experiment: Pharmacokinetics of 5-MeO-DMT and bufotenine after inhalation, LC-MS/MS
Format: in vivo, human
Procedure: Blood samples were obtained at 1; 2; 4; 7; 10; 15; 20; 30; 45 min and 1; 1.5; 2; 3; 4 hours after administration.
PK parameters were generated by algebraic analysis of the concentration versus time plots for each individual. The analysis was carried out using the software Phoenix WinNonlin 6.3.

With `COc1ccc2[nH]cc(CCN(C)C)c2c1` [5-MeO-DMT] the “plasma concentration as % of Cmax” value (10 minutes after administration, 6-18 mg) was at most 10%, the “plasma concentration as % of Cmax” value (after 2 hours, 6-18 mg) was at most 1% and the detectability in plasma (after 3 hours, 6-18 mg) was “no longer detectable”. The “5-MeO-DMT still present, % Cmax” value (after about 1 hour, healthy volunteers and PPD patients) was “less than 10%” and the “accumulation upon repeated administration” value (repeat within 1 to 4 hours) was “No accumulation”.
